Measured values from patent publication US11078197B2, “5-membered and bicyclic heterocyclic amides as inhibitors of rock” (BRISTOL-MYERS SQUIBB COMPANY, priority 2017, dated 2021).

The molecules below were run against ROCK2 (Homo sapiens (Human), UniProt O75116) (assay: ROCK2 assay (peptide phosphorylation, LABCHIP 3000 Reader)). Settings: 5 μM ATP, 1.5 μM peptide substrate, dose-response.
Sequence of ROCK2 (O75116 whole entry, species assumed): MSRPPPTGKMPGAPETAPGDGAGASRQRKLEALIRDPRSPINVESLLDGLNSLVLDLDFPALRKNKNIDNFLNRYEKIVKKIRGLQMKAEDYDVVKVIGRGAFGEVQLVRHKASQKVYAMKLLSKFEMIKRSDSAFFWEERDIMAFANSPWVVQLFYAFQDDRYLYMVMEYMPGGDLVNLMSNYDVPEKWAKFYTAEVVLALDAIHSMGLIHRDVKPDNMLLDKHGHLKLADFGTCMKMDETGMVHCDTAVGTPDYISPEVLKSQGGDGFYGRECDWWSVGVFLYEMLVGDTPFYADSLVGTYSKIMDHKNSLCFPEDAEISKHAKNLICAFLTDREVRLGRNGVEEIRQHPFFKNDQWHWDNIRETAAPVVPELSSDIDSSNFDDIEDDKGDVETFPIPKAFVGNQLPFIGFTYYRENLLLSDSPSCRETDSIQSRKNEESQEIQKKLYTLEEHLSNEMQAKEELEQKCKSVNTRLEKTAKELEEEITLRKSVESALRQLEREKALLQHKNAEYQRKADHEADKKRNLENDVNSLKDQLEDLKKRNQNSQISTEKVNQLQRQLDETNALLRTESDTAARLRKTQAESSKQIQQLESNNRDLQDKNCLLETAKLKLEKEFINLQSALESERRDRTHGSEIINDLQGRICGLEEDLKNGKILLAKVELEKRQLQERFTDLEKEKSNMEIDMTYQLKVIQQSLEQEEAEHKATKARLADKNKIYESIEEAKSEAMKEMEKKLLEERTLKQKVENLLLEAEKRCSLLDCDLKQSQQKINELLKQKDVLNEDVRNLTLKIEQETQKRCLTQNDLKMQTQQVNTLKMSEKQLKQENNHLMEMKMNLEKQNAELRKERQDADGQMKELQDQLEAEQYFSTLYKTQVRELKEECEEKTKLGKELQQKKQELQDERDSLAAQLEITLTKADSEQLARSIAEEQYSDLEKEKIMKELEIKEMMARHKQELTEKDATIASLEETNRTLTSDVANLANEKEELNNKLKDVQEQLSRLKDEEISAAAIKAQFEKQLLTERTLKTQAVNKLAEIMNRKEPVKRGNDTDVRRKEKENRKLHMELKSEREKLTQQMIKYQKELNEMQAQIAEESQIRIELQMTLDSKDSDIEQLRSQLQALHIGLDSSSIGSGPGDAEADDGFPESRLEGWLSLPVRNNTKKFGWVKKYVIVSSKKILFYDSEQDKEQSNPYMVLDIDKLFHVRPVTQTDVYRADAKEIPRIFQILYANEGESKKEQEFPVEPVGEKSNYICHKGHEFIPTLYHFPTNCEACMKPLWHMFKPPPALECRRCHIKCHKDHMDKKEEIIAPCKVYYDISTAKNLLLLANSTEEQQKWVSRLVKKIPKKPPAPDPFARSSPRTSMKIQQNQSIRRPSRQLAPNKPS
Format: biochemical
Experimental: After incubation, the reaction was terminated by the addition of EDTA and the phosphorylated and non-phosphorylated peptides separated using a LABCHIP®3000 Reader (Caliper Life Sciences). […] Compounds were tested in dose-response format, and the inhibition of kinase activity was calculated at each concentration of compound. […] Representative Examples were tested in the ROCK2 assay described above and found having ROCK2 inhibitory activity.
`Cc1nn(C)c2nc(OC3CC4(CC(NC(=O)c5cnn6cc(OCC(C)(C)O)ccc56)C4)C3)c(C(N)=O)cc12` (stereo not drawn) [Example 73, 6-({6-[6-(2-hydroxy-2-methylpropoxy)pyrazolo [1,5-a]pyridine-3-amido]spiro[3.3]heptan-2-yl}oxy)-1,3-dimethyl-1H-pyrazolo[3,4-b]pyridine-5-carboxamide] gave an IC50 of 1.16 µM. In the case of `NC(=O)c1cc2sccc2nc1OC1CC2(CC(NC(=O)c3cnn4ccccc34)C2)C1` (stereo not drawn) [Example 75, 5-[(6-{pyrazolo[1,5-a]pyridine-3-amido}spiro[3.3]heptan-2-yl)oxy]thieno[3,2-b]pyridine-6-carboxamide], the IC50 is reported as 0.0267 µM. `CC(C)(O)COc1ccc2c(C(=O)NC3CC4(C3)CC(Oc3nc5ccsc5cc3C(N)=O)C4)cnn2c1` (stereo not drawn) [Example 76, 5-({6-[6-(2-hydroxy-2-methylpropoxy)pyrazolo[1,5-a]pyridine-3-amido]spiro[3.3]heptan-2-yl}oxy)thieno[3,2-b]pyridine-6-carboxamide] gave an IC50 of 0.0068 µM. Molecule `NC(=O)c1cc2sccc2nc1OC1CC2(CC(NC(=O)C3CCC(F)(F)CC3)C2)C1` (stereo not drawn) [Example 77, 5-{[6-(4,4-difluorocyclohexane amido)spiro[3.3]heptan-2-yl]oxy}thieno[3,2-b]pyridine-6-carboxamide] has an IC50 of 0.634 µM. In the case of `N#Cc1cccc(C(=O)NC2CC3(C2)CC(Oc2nc4ccsc4cc2C(N)=O)C3)c1` (stereo not drawn) [Example 79, 5-{[6-(3-cyanobenzamido)spiro[3.3]heptan-2-yl]oxy}thieno[3,2-b]pyridine-6-carboxamide], the IC50 is reported as 0.0222 µM. In the case of `NC(=O)c1cc2c(nc1OC1CC3(CC(NC(=O)c4cnn5ccccc45)C3)C1)CCOC2` (stereo not drawn) [Example 81, 2-[(6-{pyrazolo[1,5-a]pyridine-3-amido}spiro[3.3]heptan-2-yl)oxy]-5H,7H,8H-pyrano[4,3-b]pyridine-3-carboxamide], the IC50 is reported as 0.323 µM. Molecule `CC(C)(O)COc1ccc2c(C(=O)NC3CC4(C3)CC(Oc3nc5c(cc3C(N)=O)COCC5)C4)cnn2c1` (stereo not drawn) [Example 82, N-[6-({3-carbamoyl-5H,7H,8H-pyrano[4,3-b]pyridin-2-yl}oxy)spiro[3.3]heptan-2-yl]-6-(2-hydroxy-2-methylpropoxy) pyrazolo[1,5-a]pyridine-3-carboxamide] has an IC50 of 0.02 µM. Molecule `N#Cc1cccc(C(=O)N[C@H]2C[C@]3(C2)C[C@H](Oc2nc4ccsc4cc2C(N)=O)C3)c1` (stereo partly drawn) [Example 83, 5-{[(aR)-6-(3-cyanobenzamido)spiro[3.3]heptan-2-yl]oxy}thieno[3,2-b]pyridine-6-carboxamide] has an IC50 of 0.0097 µM. With `CC(C)(O)COc1ccc2c(C(=O)N[C@H]3C[C@]4(C3)C[C@H](Oc3nc5ccsc5cc3C(N)=O)C4)cnn2c1` (stereo partly drawn) [Example 84, 6-(2-hydroxy-2-methylpropoxy)-N-[(aR)-6-({6-carbamoylthieno[3,2-b]pyridin-5-yl}oxy)spiro[3.3]heptan-2-yl]pyrazolo[1,5-a]pyridine-3-carboxamide] the IC50 was 0.0022 µM. With `N#Cc1cccc(C(=O)N[C@H]2C[C@]3(C2)C[C@H](Oc2nc4c(cc2C(N)=O)COCC4)C3)c1` (stereo partly drawn) [Example 85, 2-{[(aR)-6-(3-cyanobenzamido)spiro[3.3]heptan-2-yl]oxy}-5H,7H,8H-pyrano[4,3-b]pyridine-3-carboxamide] the IC50 was 0.144 µM. Molecule `NC(=O)c1cc2sccc2nc1O[C@H]1C[C@]2(C1)C[C@H](N1C(=O)CN(Cc3ccccc3)CC1=O)C2` (stereo partly drawn) [Example 86, 5-{[(aR)-6-(4-benzyl-2,6-dioxopiperazin-1-yl)spiro[3.3]heptan-2-yl]oxy}thieno[3,2-b]pyridine-6-carboxamide] has an IC50 of 0.0859 µM. For `N#Cc1cc(C(=O)N[C@H]2C[C@]3(C2)C[C@H](Oc2nc4c(cc2C(N)=O)COCC4)C3)ccc1F` (stereo partly drawn) [Example 87, 2-{[(aR)-6-(3-cyano-4-fluorobenzamido)spiro[3.3]heptan-2-yl]oxy}-5H,7H,8H-pyrano[4,3-b]pyridine-3-carboxamide], the IC50 was 0.156 µM. For `N#CCc1cccc(C(=O)N[C@H]2C[C@]3(C2)C[C@H](Oc2nc4c(cc2C(N)=O)COCC4)C3)c1` (stereo partly drawn) [Example 88, 2-{[(aR)-6-[3-(cyanomethyl)benzamido]spiro[3.3]heptan-2-yl]oxy}-5H,7H,8H-pyrano[4,3-b]pyridine-3-carboxamide], the IC50 was 0.035 µM. In the case of `N#Cc1ccc(F)c(C(=O)N[C@H]2C[C@]3(C2)C[C@H](Oc2nc4c(cc2C(N)=O)COCC4)C3)c1` (stereo partly drawn) [Example 89, 2-{[(aR)-6-(5-cyano-2-fluorobenzamido)spiro[3.3]heptan-2-yl]oxy}-5H,7H,8H-pyrano[4,3-b]pyridine-3-carboxamide], the IC50 is reported as 0.716 µM. For `COc1ccc(C(=O)N[C@H]2C[C@]3(C2)C[C@H](Oc2nc4c(cc2C(N)=O)COCC4)C3)cc1C#N` (stereo partly drawn) [Example 90, 2-{[(aR)-6-(3-cyano-4-methoxybenzamido)spiro[3.3]heptan-2-yl]oxy}-5H,7H,8H-pyrano[4,3-b]pyridine-3-carboxamide], the IC50 was 0.114 µM. `NC(=O)c1cc2c(nc1O[C@H]1C[C@@]3(C[C@H](NC(=O)c4ccc5[nH]ncc5c4)C3)C1)CCOC2` (stereo partly drawn) [Example 91, N-[(aR)-6-({3-carbamoyl-5H,7H,8H-pyrano[4,3-b]pyridin-2-yl}oxy)spiro[3.3]heptan-2-yl]-1H-indazole-5-carboxamide] gave an IC50 of 0.33 µM. In the case of `N#Cc1cc(C(=O)N[C@H]2C[C@]3(C2)C[C@H](Oc2nc4c(cc2C(N)=O)COCC4)C3)ccc1Br` (stereo partly drawn) [Example 92, 2-{[(aR)-6-(4-bromo-3-cyanobenzamido)spiro[3.3]heptan-2-yl]oxy}-5H,7H,8H-pyrano[4,3-b]pyridine-3-carboxamide], the IC50 is reported as 0.191 µM. For `N#Cc1ccc(C(=O)N[C@H]2C[C@]3(C2)C[C@H](Oc2nc4c(cc2C(N)=O)COCC4)C3)cc1F` (stereo partly drawn) [Example 93, 2-{[(aR)-6-(4-cyano-3-fluorobenzamido)spiro[3.3]heptan-2-yl]oxy}-5H,7H,8H-pyrano[4,3-b]pyridine-3-carboxamide], the IC50 was 1.46 µM. For `Cc1sc2cc(C(N)=O)c(O[C@H]3C[C@@]4(C[C@H](NC(=O)c5cnn6cc(OCC(C)(C)O)ccc56)C4)C3)nc2c1C` (stereo partly drawn) [Example 94, 2,3-dimethyl-5-{[(aR)-6-[6-(2-hydroxy-2-methylpropoxy)pyrazolo[1,5-a]pyridine-3-amido]spiro[3.3]heptan-2-yl]oxy}thieno[3,2-b]pyridine-6-carboxamide], the IC50 was 0.039 µM. Work on `Cc1sc2cc(C(N)=O)c(O[C@H]3C[C@@]4(C[C@H](NC(=O)c5cccc(C#N)c5)C4)C3)nc2c1C` (stereo partly drawn) [Example 95, 2,3-dimethyl-5-{[(aR)-6-(3-cyanobenzamido)spiro[3.3]heptan-2-yl]oxy}thieno[3,2-b]pyridine-6-carboxamide] yielded an IC50 of 0.079 µM. `Cc1sc2cc(C(N)=O)c(O[C@H]3C[C@@]4(C[C@H](NC(=O)c5cnc6ccc(F)cc6c5)C4)C3)nc2c1C` (stereo partly drawn) [Example 96, 6-fluoro-N-[(aR)-6-({6-carbamoyl-2,3-dimethylthieno[3,2-b]pyridin-5-yl}oxy)spiro[3.3]heptan-2-yl]quinoline-3-carboxamide] was tested, and the IC50 was 0.126 µM. In the case of `Cc1csc2cc(C(N)=O)c(O[C@H]3C[C@@]4(C[C@H](NC(=O)c5cnn6cc(OCC(C)(C)O)ccc56)C4)C3)nc12` (stereo partly drawn) [Example 97, 3-methyl-5-{[(aR)-6-[6-(2-hydroxy-2-methylpropoxy)pyrazolo[1,5-a]pyridine-3-amido]spiro[3.3]heptan-2-yl]oxy}thieno[3,2-b]pyridine-6-carboxamide], the IC50 is reported as 0.012 µM. `Cc1csc2cc(C(N)=O)c(O[C@H]3C[C@@]4(C[C@H](NC(=O)c5cccc(C#N)c5)C4)C3)nc12` (stereo partly drawn) [Example 98, 3-methyl-5-{[(aR)-6-(3-cyanobenzamido)spiro[3.3]heptan-2-yl]oxy}thieno[3,2-b]pyridine-6-carboxamide] showed an IC50 of 0.0257 µM. With `Cc1csc2cc(C(N)=O)c(O[C@H]3C[C@@]4(C[C@H](NC(=O)c5cnc6ccc(F)cc6c5)C4)C3)nc12` (stereo partly drawn) [Example 99, 6-fluoro-N-[(aR)-6-({6-carbamoyl-3-methylthieno[3,2-b]pyridin-5-yl}oxy)spiro[3.3]heptan-2-yl]quinoline-3-carboxamide] the IC50 was 0.0671 µM. `NC(=O)c1cc2c(nc1O[C@H]1C[C@@]3(C[C@H](NC(=O)c4cnc5ccc(F)cc5c4)C3)C1)CCOC2` (stereo partly drawn) [Example 100, 6-fluoro-N-[(aR)-6-({3-carbamoyl-5H,7H,8H-pyrano[4,3-b]pyridin-2-yl}oxy)spiro[3.3]heptan-2-yl]quinoline-3-carboxamide] was tested, and the IC50 was 0.0366 µM. Molecule `Cn1ncc2cc(C(N)=O)c(O[C@H]3C[C@@]4(C[C@H](NC(=O)c5cnn6cc(OCC(C)(C)O)ccc56)C4)C3)nc21` (stereo partly drawn) [Example 101, 1-methyl-6-{[(aR)-6-[6-(2-hydroxy-2-methylpropoxy)pyrazolo [1,5-a]pyridine-3-amido]spiro[3.3]heptan-2-yl]oxy}-1H-pyrazolo[3,4-b]pyridine-5-carboxamide] has an IC50 of 0.006 µM. `Cn1ncc2cc(C(N)=O)c(O[C@H]3C[C@@]4(C[C@H](NC(=O)c5cccc(C#N)c5)C4)C3)nc21` (stereo partly drawn) [Example 102, 1-methyl-6-{[(aR)-6-(3-cyanobenzamido)spiro[3.3]heptan-2-yl]oxy}-1H-pyrazolo[3,4-b]pyridine-5-carboxamide] showed an IC50 of 0.008 µM. `Cn1ncc2cc(C(N)=O)c(O[C@H]3C[C@@]4(C[C@H](NC(=O)c5cnc6ccc(F)cc6c5)C4)C3)nc21` (stereo partly drawn) [Example 103, 6-fluoro-N-[(aR)-6-({5-carbamoyl-1-methyl-1H-pyrazolo[3,4-b]pyridin-6-yl}oxy)spiro[3.3]heptan-2-yl]quinoline-3-carboxamide] was tested, and the IC50 was 0.005 µM. For `NC(=O)c1cn(C2CC2)nc1O[C@H]1C[C@]2(C1)C[C@H](N1C(=O)NC(Cc3ccccc3)C1=O)C2` (stereo partly drawn) [Example 104, 1-cyclopropyl-3-{[(aR)-6-(4-benzyl-2,5-dioxoimidazolidin-1-yl)spiro[3.3]heptan-2-yl]oxy}-1H-pyrazole-4-carboxamide], the IC50 was 2.04 µM. Molecule `CC(C)CC1NC(=O)N([C@H]2C[C@@]3(C[C@H](Oc4nn(C5CC5)cc4C(N)=O)C3)C2)C1=O` (stereo partly drawn) [Example 105, 1-cyclopropyl-3-{[(aR)-6-[4-(2-methylpropyl)-2,5-dioxoimidazolidin-1-yl]spiro[3.3]heptan-2-yl]oxy}-1H-pyrazole-4-carboxamide] has an IC50 of 0.133 µM.
